In patent US5750531A, “Pyrimidine derivatives and processes for the preparation thereof” (Yuhan Corporation, priority 1994, dated 1998):

Legend:
gastric secretion = test: Inhibition of gastric secretion (pylorus ligation, Shay method); type: in vivo, Male Sprague-Dawley rats; details: 20 mg/kg intraduodenally, 5 hours; for Relative Acid Output: acid output relative to omeprazole; for Rel. Vol.: gastric juice volume relative to omeprazole; for Rel. Conc.: acid concentration relative to omeprazole
Procedure: Inhibition of gastric secretion […] Under ether anesthesia, the abdomen was incised, and the pylorus was ligated. […] After closing the abdominal cavity, the rats were placed for 5 hours and then killed by cervical dislocation. The stomach was extracted to obtain gastric juice. The gastric juice was centrifuged at 1,000 g to remove precipitates. The amount and acidity of the gastric juice were measured. Relative volumes, relative acid concentrations and relative acid outputs of the test compounds were calculated from equations(I), (II) and (III) and the results are shown in Table 2. […] Group 3) (II) […] (III)

[1] = target: proton pump(H^+ /K^+ ATPase); test: Inhibition of proton pump(H^+ /K^+ ATPase) activity; type: biochemical; details: pH 6.0, 37° C., 30 minutes preincubation and 30 minutes reaction; read-out: IC50 Test compound
Procedure: Test 1: Inhibition of proton pump(H^+ /K^+ ATPase) activity
A proton pump enzyme source was prepared by the same method as in Experiment 1-1 of WO 94/14795. Further, the inhibitory effect of proton pump activity was measured by the same method as in Experiment 1-2 of WO 94/14795.
Namely, the proton pump activity stimulated by Mg^++ was used as a negative comparative group, and the activity stimulated by Mg^++ and K^+ was used as a positive comparative group. The comparative compound was omeprazole.
Test tubes were divided into 4 groups: Group 1 as negative comparative group(n=3), Group 2 as positive comparative group(n=3), Group 3(n=5×2) to be administered with the compound of the present invention and Group 4(n=5×2) to be administered with the comparative compound.
The inhibitory effects of Groups 3 and 4 on proton pump activity were measured by employing the compound prepared in Example and omeperazole, respectively, each of which was dissolved in dimethylsulfoxide at 5 different concentrations.
To each of Groups 1, 2, 3 and 4 were added 100 μl of magnesium chloride(40 mM) dissolved in 40 mM Tris-HCl buffer(pH 6.0) and 100μ of the enzyme source. Then, 50μ of potassium chloride(50 mM) and 50 μl of ammonium chloride(6 mM) dissolved in 40 mM Tris-HCl buffer(pH 6.0) were added to all groups except for Group 1.
10 μl of dimethylsulfoxide was added to each of Groups 1 and 2; and to Group 3 was added 10 μl of the solution in which the compound prepared in Example was dissolved in dimethylsulfoxide at 5 different concentrations(n=5×2). To Group 4, 10 μl of the solution prepared by dissolving omeprazole in dimethylsulfoxide at 5 different concentrations(37.6, 21.4, 12.2, 7.0 and 4.0 μM) was added(n=5×2). 40 mM Tris-HCl buffer(pH=6.0) was added thereto so as to make the total volume 400 μl.
Thereafter, the test tubes of each Group were placed at 37° C. for 30 minutes for the preincubation. 100 μl of ATP solution (6.6 mM) was added until the reaction volume became 500 μl. After the reaction was carried out at 37° C. for 30 minutes, 25% cold trichloroacetic acid was added to terminate the enzyme reaction. The released inorganic phosphate was measured by an automatic analyzer(Express 550, Corning).
The difference between Group 1 and Group 2 represents the proton pump activity activated by K^+ only. The inhibition percentages of Groups 3 and 4 were calculated from Litchfield-wilcoxon equation[see, e.g., J. pharmacol. Exp. Ther., 96, 99(1949)]. The concentrations of the test compounds which inhibit 50% of the proton pump activity are represented as IC50 in Table 1.

| IC50 [1] [µM] | Structure (SMILES) | Relative Acid Output (gastric secretion) | Rel. Vol. (gastric secretion) | Rel. Conc. (gastric secretion) |
| --- | --- | --- | --- | --- |
| 5.4 | Cc1cc(F)ccc1Nc1nccc(N2CCc3ccccc3C2C)n1.Cl (stereo not drawn) [Example 1, 2-(2-methyl-4-fluorophenylamino)-4-(1-methyl-1,2,3,4-tetrahydroisoquinolin-2-yl)pyrimidine hydrochloride] | 0.11 | 0.12 |  |
| 0.9 | Cc1cc(N2CCc3ccccc3C2C)nc(Nc2ccc(F)cc2C)n1.Cl (stereo not drawn) [Example 2, 6-methyl-2-(2-methyl-4-fluorophenylamino)-4-(1-methyl-1,2,3,4-tetrahydroisoquinolin-2-yl)pyrimidine hydrochloride] | 0.89 | 0.92 | 0.8 |
| 3.5 | Cc1cc(N2CCc3ccccc3C2C)nc(Nc2ccc(F)cc2)n1.Cl (stereo not drawn) [Example 3, 6-methyl-4-(1-methyl-1,2,3,4-tetrahydroisoquinolin-2-yl)-2-(4-fluorophenylamino)pyrimidine hydrochloride] | 0.87 | 0.76 | 0.81 |
|  | Cc1cc(N2CCc3ccccc3C2C)nc(N(C)c2ccccc2)n1.Cl (stereo not drawn) [Example 4, 6-methyl-2-(N-methylphenylamino)-4-(1-methyl-1,2,3,4-tetrahydroisoquinolin-2-yl)pyrimidine hydrochloride] | 0.87 | 0.99 | 0.56 |
| 1.3 | CCc1cc(N2CCc3ccccc3C2C)nc(Nc2ccc(F)cc2C)n1.Cl (stereo not drawn) [Example 5, 6-ethyl-2-(2-methyl-4-fluorophenylamino)-4-(1-methyl-1,2,3,4-tetrahydroisoquinolin-2-yl)pyrimidine hydrochloride] | 0.61 | 0.59 | 0.27 |
| 4.3 | CCc1cc(N2CCc3ccccc3C2C)nc(Nc2ccc(F)cc2)n1.Cl (stereo not drawn) [Example 6, 6-ethyl-2-(4-fluorophenylamino)-4-(1-methyl-1,2,3,4-tetrahydroisoquinolin-2-yl)pyrimidine hydrochloride] | 0.64 | 0.64 | 0.28 |
|  | CCc1cc(N2CCc3ccccc3C2C)nc(N(C)c2ccccc2)n1.Cl (stereo not drawn) [Example 7, 6-ethyl-2-(N-methylphenylamino)-4-(1-methyl-1,2,3,4-tetrahydroisoquinolin-2-yl)pyrimidine hydrochloride] | 0.48 | 0.51 | 0.09 |
| ~12.5 | CCc1cc(N2CCc3ccccc3C2C)nc(Nc2ccccc2C)n1.Cl (stereo not drawn) [Example 8, 6-ethyl-2-(2-methylphenylamino)-4-(1-methyl-1,2,3,4-tetrahydroisoquinolin-2-yl)pyrimidine hydrochloride] | 0.42 | 0.43 | 0.12 |
| ~10 | CCCc1cc(N2CCc3ccccc3C2C)nc(Nc2ccc(F)cc2C)n1.Cl (stereo not drawn) [Example 9, 2-(2-methyl-4-fluorophenylamino)-4-(1-methyl-1,2,3,4-tetrahydroisoquinolin-2-yl)-6-propylpyrimidine hydrochloride] | 0.3 | 0.4 |  |
| 10.6 | CCCc1cc(N2CCc3ccccc3C2C)nc(Nc2ccc(F)cc2)n1.Cl (stereo not drawn) [Example 10, 4-(1-methyl-1,2,3,4-tetrahydroisoquinolin-2-yl)-6-propyl-2-(4-fluorophenylamino)pyrimidine hydrochloride] | 0.55 | 0.58 | 0.47 |
|  | CCCc1cc(N2CCc3ccccc3C2C)nc(N(C)c2ccccc2)n1.Cl (stereo not drawn) [Example 11, 2-(N-methylphenylamino)-4-(1-methyl-1,2,3,4-tetrahydroisoquinolin-2-yl)-6-propylpyrimidine hydrochloride] | 0.82 | 0.99 | 0.41 |
| 0.6 | Cc1cc(F)ccc1Nc1nc(C)c(C)c(N2CCc3ccccc3C2C)n1.Cl (stereo not drawn) [Example 12, 5,6-dimethyl-2-(2-methyl-4-fluorophenylamino)-4-(1-methyl-1,2,3,4-tetrahydroisoquinolin-2-yl)pyrimidine hydrochloride] | 0.75 | 1.64 | 0.29 |
| 0.5 | Cc1cc(F)ccc1Nc1nc(C)c(C)c(N2CCc3ccccc3[C@H]2C)n1.Cl [Example 13, (R)-5,6-Dimethyl-2-(2-methyl-4-fluorophenylamino)-4-(1-methyl-1,2,3,4-tetrahydroisoquinolin-2-yl)pyrimidine hydrochloride] | 0.81 | 1.72 | 0.46 |
|  | CC1c2ccccc2CCN1c1nc(N(C)c2ccccc2)nc2c1CCCC2.Cl (stereo not drawn) [Example 33, 2-(N-methylphenylamino)-4-(1-methyl-1,2,3,4-tetrahydroisoquinoline-2-yl)-5,6,7,8-tetrahydroquinazoline hydrochloride] | 0.94 | 0.93 | 1.13 |
|  | Cc1cc(N2CCc3ccccc3C2)nc(N(C)c2ccccc2)n1.Cl [Example 36, 6-methyl-2-(N-methylphenylamino)-4-(1,2,3,4-tetrahydroisoquinolin-2-yl)pyrimidine hydrochloride] | 0.41 | 0.65 | 0.05 |
|  | CCc1nc(Nc2ccc(F)cc2C)nc(N2CCc3ccsc3C2C)c1C.Cl (stereo not drawn) [Example 56, 5-methyl-2-(2-methyl-4-fluorophenylamino)-4-(7-methyl-4,5,6,7-tetrahydrothieno[2,3-c]pyridin-6-yl)-6-ethylpyrimidine hydrochloride] | 0.08 | 0.01 | 0.08 |
|  | Cc1nc(N2CCc3ccccc3C2C)nc(N(C)c2ccccc2)c1C.Cl (stereo not drawn) [Example 71, 5,6-dimethyl-4-(N-methylphenylamino)-2-(1-methyl-1,2,3,4-tetrahydroisoquinolin-2-yl)pyrimidine hydrochloride] | 0.16 | 0.25 |  |
|  | Cc1nc(N2CCc3ccccc3[C@H]2C)nc(N(C)c2ccccc2)c1C.Cl [Example 72, (R)-5,6-dimethyl-4-(N-methylphenylamino)-2-(1-methyl-1,2,3,4-tetrahydroisoquinolin-2-yl)pyrimidine hydrochloride] | 0.25 | 0.34 | 0.16 |
|  | Cc1nc(N2CCc3ccccc3[C@@H]2C)nc(N(C)c2ccccc2)c1C.Cl [Example 73, (S)-5,6-dimethyl-4-(N-methylphenylamino)-2-(1-methyl-1,2,3,4-tetrahydroisoquinolin-2-yl)pyrimidine hydrochloride] | 0.13 | 0.18 |  |
|  | Cc1nc(N2CCc3ccccc3C2)nc(N(C)c2ccccc2)c1C.Cl [Example 76, 5,6-dimethyl-4-(N-methylphenylamino)-2-(1,2,3,4-tetrahydroisoquinolin-2-yl)pyrimidine hydrochloride] | 0.33 | 0.28 | 0.17 |
|  | Cc1nc(N2CCc3ccsc3C2C)nc(N(C)c2ccccc2)c1C.Cl (stereo not drawn) [Example 79, 5,6-dimethyl-4-(N-methylphenylamino)-2-(7-methyl-4,5,6,7-tetrahydrothieno[2,3-c]pyridin-6-yl)pyrimidine hydrochloride] | 0.49 | 0.54 | 1.28 |
|  | CCc1nc(N2CCc3ccccc3C2C)nc(Nc2ccc(F)cc2C)c1C.Cl (stereo not drawn) [Example 80, 5-methyl-6-ethyl-4-(2-methyl-4-fluorophenylamino)-2-(1-methyl-1,2,3,4-tetrahydroisoquinolin-2-yl)pyrimidine hydrochloride] | 0.44 | 0.32 | 0.29 |
